From article PMC7592892, “Anemarsaponin BII inhibits the activity of CYP3A4, 2D6, and 2E1 with human liver microsomes” (Pharmaceutical Biology, 2020)

Tests used:
CYP2C9 = test system: T1, CYP2C9; type: in vitro ADME; details: human, microsomes, 100 μM, pH 7.4
T1 construct: marker reactions with specific substrates in human liver microsomes (HLMs); from tissue; host or cells: pooled human liver microsomes
Procedure: (§1) The activity of CYP450s was evaluated by the marker reactions with specific substrates in human liver microsomes (HLMs). The reaction conditions are summarized in Table 1 according to previous studies. The concentration of anemarsaponin BII was 100 μM with the following concentration of specific inhibitors: 10 μM furafylline for CYP1A2, 10 μM tranylcypromine for CYP2A6, 1 μM ketoconazole for CYP3A4, 5 μM montelukast for CYP2C8, 10 μM sulfaphenazole for CYP2C9, 50 μM tranylcypromine for CYP2C19, 10 μM quinidine for CYP2D6, 50 μM clomethiazole for CYP2E1. 200 μL incubation system included 100 mM potassium phosphate buffer (pH 7.4), NADPH generating system (1 mM NADP^+, 10 mM glucose-6-phosphate, 1 U/mL of glucose-6-phosphate dehydrogenase, and 4 mM MgCl2), the appropriate concentration of HLMs, a corresponding probe substrate and anemarsaponin BII (or positive inhibitor for different probe reactions). The HADPH-generating system was added before the incubation to preincubate for 3 min at 37 °C. The reaction was terminated with 100 μL acetonitrile (10% trichloroacetic acid for CYP2A6). Then, the mixture was centrifuged at 12,000 rpm for 10 min, and an aliquot (50 μL) of supernatant was transferred for HPLC analysis with the help of the Agilent 1260 series instrument with DAD and FLD detector according to previous studies. The HPLC conditions for analysis of corresponding metabolites of CYP isoforms are summarized in Table 2 based on previous studies (Lang et al. [2017]; Zhang et al. [2017]). Incubations were performed in triplicate, and results were represented with the mean value. The final microsomal protein concentration and incubation times for the different probe reactions are summarized in Table 1 based on previous studies (Lang et al. [2017]; Wang et al. [2019]). The effect of anemarsaponin BII on the activity of CYPs was evaluated in pooled human liver microsomes according to previous studies (Dong et al. [2018]; Wang et al. [2019]). The residual activity of eight CYP isoforms was first detected with 100 μM anemarsaponin BII in HLMs. Next, CYPs of which the activity was inhibited by anemarsaponin BII was incubated with 0, 2.5, 5, 10, 25, 50 and 100 μM anemarsaponin BII to explore the values of half inhibition concentration (IC50). Additionally, 0–50 μM anemarsaponin BII was incubated with various concentration of probe substrates (20–100 μM testosterone for CYP3A4, 10–50 μM dextromethorphan for CYP2D6, and 25–250 μM chlorzoxazone for CYP2E1) to obtain the values of KI.

CYP1A2 = test system: T2, CYP1A2; type: in vitro ADME; details: human, microsomes, 100 μM, pH 7.4
T2 construct: marker reactions with specific substrates in human liver microsomes (HLMs); from tissue; host or cells: pooled human liver microsomes
Procedure: as §1

CYP2C19 = test system: T3, CYP2C19; type: in vitro ADME; details: human, microsomes, 100 μM, pH 7.4
T3 construct: marker reactions with specific substrates in human liver microsomes (HLMs); from tissue; host or cells: pooled human liver microsomes
Procedure: as §1

CYP2C8 = test system: T4, CYP2C8; type: in vitro ADME; details: human, microsomes, 100 μM, pH 7.4
T4 construct: marker reactions with specific substrates in human liver microsomes (HLMs); from tissue; host or cells: pooled human liver microsomes
Procedure: as §1

CYP2D6 = biological target: T5, CYP2D6 (Homo sapiens, UniProt P10635); assay: Time-dependent inhibition of CYP2D6 in HLMs; type: in vitro ADME; details: 20 μM anemarsaponin BII, data not shown
T5 construct: marker reactions with specific substrates in human liver microsomes (HLMs); from tissue; host or cells: pooled human liver microsomes
T5 sequence (P10635 whole entry): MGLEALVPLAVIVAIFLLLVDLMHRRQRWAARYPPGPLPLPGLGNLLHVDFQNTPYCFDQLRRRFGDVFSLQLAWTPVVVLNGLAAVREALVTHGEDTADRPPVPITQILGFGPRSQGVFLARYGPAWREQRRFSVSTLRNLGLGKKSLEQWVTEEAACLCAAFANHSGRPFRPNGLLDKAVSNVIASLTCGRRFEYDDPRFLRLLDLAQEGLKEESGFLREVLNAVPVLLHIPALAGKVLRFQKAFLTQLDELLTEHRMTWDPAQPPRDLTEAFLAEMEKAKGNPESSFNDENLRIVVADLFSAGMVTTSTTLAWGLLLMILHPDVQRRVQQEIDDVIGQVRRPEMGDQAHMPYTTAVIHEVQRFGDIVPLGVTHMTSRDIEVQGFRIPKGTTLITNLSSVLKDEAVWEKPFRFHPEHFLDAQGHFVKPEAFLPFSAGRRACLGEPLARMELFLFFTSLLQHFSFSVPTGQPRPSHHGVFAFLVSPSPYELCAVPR
Procedure: (§2) The effect of incubation time on the inhibition of anemarsaponin BII was evaluated with 20 μM anemarsaponin BII. HLMs were preincubated with anemarsaponin BII and the NADPH-generating system for 30 min at 37 °C. Then, an aliquot (20 μL) was transferred to another incubation tube (final volume 200 μL) containing an NADPH-generating system and probe substrates, of which final concentrations were approximate to Km. After incubating for 0, 5, 10, 15 and 30 min, the reaction was terminated with 100 μL acetonitrile internal standard mix and placed on ice. The metabolites were analyzed by HPLC. To obtain the values of KI and Kinact, another incubation with a higher concentration of substrates (approximately 4-fold Km values) was performed in the presence of 0–50 μM anemarsaponin BII for 0, 5, 10, 15 and 30 min.

CYP3A4 [1] = biological target: T6, CYP3A4 (Homo sapiens, UniProt P08684); assay: CYP3A4 inhibition in pooled human liver microsomes (testosterone 6β-hydroxylation); type: in vitro ADME
T6 construct: marker reactions with specific substrates in human liver microsomes (HLMs); from tissue; host or cells: pooled human liver microsomes
T6 sequence (P08684 whole entry): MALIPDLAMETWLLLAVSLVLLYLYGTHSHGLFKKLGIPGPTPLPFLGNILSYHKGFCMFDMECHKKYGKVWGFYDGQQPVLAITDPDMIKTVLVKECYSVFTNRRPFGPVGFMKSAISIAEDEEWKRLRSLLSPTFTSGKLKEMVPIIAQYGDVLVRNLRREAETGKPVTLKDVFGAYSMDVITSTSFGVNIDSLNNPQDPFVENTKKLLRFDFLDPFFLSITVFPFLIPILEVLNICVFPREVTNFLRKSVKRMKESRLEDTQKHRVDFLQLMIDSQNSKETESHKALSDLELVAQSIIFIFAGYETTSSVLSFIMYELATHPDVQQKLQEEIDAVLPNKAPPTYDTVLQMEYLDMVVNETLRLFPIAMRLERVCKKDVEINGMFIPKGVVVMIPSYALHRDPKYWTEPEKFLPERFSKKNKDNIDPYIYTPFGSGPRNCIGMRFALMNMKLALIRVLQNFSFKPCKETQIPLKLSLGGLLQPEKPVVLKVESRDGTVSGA
Procedure: The activity of CYP450s was evaluated by the marker reactions with specific substrates in human liver microsomes (HLMs). The reaction conditions are summarized in Table 1 according to previous studies. The concentration of anemarsaponin BII was 100 μM with the following concentration of specific inhibitors: 10 μM furafylline for CYP1A2, 10 μM tranylcypromine for CYP2A6, 1 μM ketoconazole for CYP3A4, 5 μM montelukast for CYP2C8, 10 μM sulfaphenazole for CYP2C9, 50 μM tranylcypromine for CYP2C19, 10 μM quinidine for CYP2D6, 50 μM clomethiazole for CYP2E1. 200 μL incubation system included 100 mM potassium phosphate buffer (pH 7.4), NADPH generating system (1 mM NADP^+, 10 mM glucose-6-phosphate, 1 U/mL of glucose-6-phosphate dehydrogenase, and 4 mM MgCl2), the appropriate concentration of HLMs, a corresponding probe substrate and anemarsaponin BII (or positive inhibitor for different probe reactions). The HADPH-generating system was added before the incubation to preincubate for 3 min at 37 °C. The reaction was terminated with 100 μL acetonitrile (10% trichloroacetic acid for CYP2A6). Then, the mixture was centrifuged at 12,000 rpm for 10 min, and an aliquot (50 μL) of supernatant was transferred for HPLC analysis with the help of the Agilent 1260 series instrument with DAD and FLD detector according to previous studies. The HPLC conditions for analysis of corresponding metabolites of CYP isoforms are summarized in Table 2 based on previous studies (Lang et al. [2017]; Zhang et al. [2017]).
Incubations were performed in triplicate, and results were represented with the mean value. […]
The effect of anemarsaponin BII on the activity of CYPs was evaluated in pooled human liver microsomes according to previous studies (Dong et al. [2018]; Wang et al. [2019]). The residual activity of eight CYP isoforms was first detected with 100 μM anemarsaponin BII in HLMs. […]
The enzyme kinetic parameters for the probe reaction were estimated from the best fit line, using least-squares linear regression of the inverse substrate concentration versus the inverse velocity (Lineweaver–Burk plots), and the mean values were used to calculate Vmax and Km. Inhibition data from the experiments that were conducted using multiple compound concentrations were represented by Dixon plots, and inhibition constant (KI) values were calculated using non-linear regression according to the following equation: Competitive inhibition:v=(VmaxS)/(Km(1+I/KI)+S), Non-competitive inhibition:v=(VmaxS)/[Km+S(1+I/KIKi)] where I is the concentration of the compound, KI is the inhibition constant, S is the concentration of the substrate, and Km is the substrate concentration at half the maximum velocity (Vmax) of the reaction. […]

[2] = rat, in vivo, 171.61 mg/kg; cited from earlier work
CYP3A4 [3] = biological target: T6, CYP3A4; assay: Time-dependent inhibition of CYP3A4 in HLMs; type: in vitro ADME
Procedure: as §2

## CC(CCC1(O)OC2CC3C4CCC5CC(OC6OC(CO)C(O)C(O)C6OC6OC(CO)C(O)C(O)C6O)CCC5(C)C4CCC3(C)C2C1C)COC1OC(CO)C(O)C(O)C1O (stereo not shown) [anemarsaponin BII, Anemarsaponin BII]
CYP2C9
  effect on activity of CYP2C9: only the activity of CYP3A4, 2D6 and 2E1 was significantly inhibited
CYP1A2
  effect on activity of CYP1A2: only the activity of CYP3A4, 2D6 and 2E1 was significantly inhibited
CYP2C19
  effect on activity of CYP2C19: only the activity of CYP3A4, 2D6 and 2E1 was significantly inhibited
CYP2C8
  effect on activity of CYP2C8: only the activity of CYP3A4, 2D6 and 2E1 was significantly inhibited
CYP2D6
  effect of incubation time on inhibition of CYP2D6: not affected by the incubation time
CYP3A4 [1]; 100 μM anemarsaponin BII, residual activity
  activity of CYP3A4 decreased to (relative to untreated HLMs): 15.65%
CYP3A4 [1]; HLMs
  inhibition model CYP3A4 (Lineweaver–Burk): non-competitive
CYP3A4 [1]; HLMs, 0-100 μM anemarsaponin BII
  IC50: 13.7 µM
CYP3A4 [1]; HLMs, 20–100 μM testosterone, non-competitive model
  Ki: 6.72 µM
[2]
  Cmax: 271.22 ng/mL
  t1/2: 3.21 h
CYP3A4 [3]; 20 μM anemarsaponin BII
  effect of incubation time on inhibition of CYP3A4: increased with the incubation time
CYP3A4 [3]; human, human liver microsomes, NADPH, 0–50 μM anemarsaponin BII, 0-30 min, non-linear regression
  kinact: 0.000883 s⁻¹
